What was measured:
[1] = A2B permeability (Papp) in MDCK-MDR1 cell monolayers; format: in vitro ADME; design: dose or concentration left out as unconfirmed; conditions: dog; MDCK-MDR1 monolayer, A-B direction, HBSS pH 7.4, 60 min, 37° C.
Procedure: (§1) MDCK-MDR1 cells obtained from the NIH (Rockville, MD, USA) are used between passage numbers 6-30. Cells are seeded onto Millipore Multiscreen Transwell plates at 3.4×10^5 cells/cm2. The cells are cultured in DMEM and media is changed on day 3. On day 4 the permeability study is performed. Cell culture and assay incubations are carried out at 37° C. in an atmosphere of 5% CO2 with a relative humidity of 95%. On the day of the assay, the monolayers are prepared by rinsing both apical and basolateral surfaces twice with Hanks Balanced Salt Solution (HBSS) at the desired pH warmed to 37° C. Cells are then incubated with HBSS at the desired pH in both apical and basolateral compartments for 40 min to stabilise physiological parameters.
(§2) The dosing solutions are prepared by diluting test compound with assay buffer to give a final test compound concentration of […] (final DMSO concentration of 1% v/v). The fluorescent integrity marker lucifer yellow is also included in the dosing solution. […]
(§3) Test compound permeability is assessed in duplicate. […]
(§4) Test and control compounds are quantified by LC-MS/MS cassette analysis using a 7-point calibration with appropriate dilution of the samples. […] The starting concentration (CO) is determined from the dosing solution and the experimental recovery calculated from CO and both apical and basolateral compartment concentrations.
(§5) The integrity of the monolayer throughout the experiment is checked by monitoring lucifer yellow permeation using fluorimetric analysis. […] If a lucifer yellow Papp value is above a pre-defined threshold in one well, but the derived Papp result for test compound or marker compound in that well is qualitatively similar to that determined in the remaining replicate well (within the lucifer yellow threshold) then, based upon the scientific judgement of the responsible scientist, the cell monolayer may be considered acceptable. […] If this re-occurs upon repeat in both wells then toxicity or inherent fluorescence of the test compound is assumed. […]

MDCK-MDR1 cells = experiment: as above; format: in vitro ADME; design: dose or concentration left out as unconfirmed; conditions: MDCK-MDR1 monolayer, A-B direction, HBSS pH 7.4, 60 min, 37° C.
Procedure: as §1, §2, §3, §4, §5

Papp A→B at 60 min [1] | SMILES | A2B Papp (MDCK-MDR1 cells)
0.87 ×10⁻⁶ cm/s | CCn1cc(C(=O)N2C[C@H]3C[C@@H]2CO3)c(=O)c2cc(OC3Cc4ccccc4C3)cnc21 (stereo in doubt) [Example 17, 1-Ethyl-6-indan-2-yloxy-3-[(1R,4R)-2-oxa-5-azabicyclo[2.2.1]heptane-5-carbonyl]-1,8-naphthyridin-4-one] | –
– | CCn1cc(C(=O)N2C3COCC2C3)c(=O)c2cc(OC3Cc4ccccc4C3)cnc21 [Example 16, 1-Ethyl-6-indan-2-yloxy-3-(3-oxa-6-azabicyclo[3.1.1]heptane-6-carbonyl)-1,8-naphthyridin-4-one] | 16 2.06 10^−6 cm/s
– | CCn1cc(C(=O)N2CC3(CCOCC3)C2)c(=O)c2cc(OC3Cc4ccccc4C3)cnc21 [Example 23, 1-Ethyl-6-indan-2-yloxy-3-(7-oxa-2-azaspiro[3.5]nonane-2-carbonyl)-1,8-naphthyridin-4-one] | 23 1.24 10^−6 cm/s
